According to PMC10743653, “Combined In Silico and In Vitro Analyses to Assess the Anticancer Potential of Thiazolidinedione–Thiosemicarbazone Hybrid Molecules” (International Journal of Molecular Sciences, 2023):

What was measured:
T98G cells [1] = assay: MTT assay, T98G; format: cell-based, human; details: for IC50: Homo sapiens, T98G, MTT, 24 h treatment, mean ± SD; for SI (selectivity index): IC50 CCD 841 CoTr divided by IC50 T98G
Procedure: (§1) The effects of TZD–TSCs 2–5 on the cellular viability of a panel of cell lines were investigated through an 3-(4,5-dimethylthiazol-2-yl)-2,5-diphenyl-2H-tetrazolium bromide (MTT) assay, following a 24 h treatment with the compounds. The panel consisted of three solid tumor cells: T98G (glioblastoma multiforme), HepG2 (hepatocellular carcinoma, epithelial), and HT29 (colon adenocarcinoma, epithelial), as well as noncancerous cells CCD 841 CoTr (normal colon, epithelial).
(§2) Primary single dose screenings of TZD–TSCs 2–5 were performed at a concentration of 200 μg/mL, and those that elicited a greater than 80% inhibition of cell proliferation were analyzed at several concentrations, to find their half-maximal inhibitory concentration (IC50). The IC50 values, reported as the mean ± SD in Table 2, indicate the concentration of the tested compound that inhibits the growth/viability of the cancer cell population by 50%. In this specific case of an MTT assay, which measures the activity of mitochondrial dehydrogenases (as an indicator of cell viability), the IC50 values stand for the concentration that inhibits the metabolic activity of cells by 50%.
(§3) Human colon adenocarcinoma cells, HT29 (ATCC no. HTB-38), derived from a grade I tumor, were cultured in roswell park memorial institute Medium (RPMI) 1640 medium, supplemented with 10% fetal calf serum (FCS) (GibcoTM, Paisley, UK) and antibiotics (100 U/mL penicillin and 100 μg/mL streptomycin) (Sigma, St. Louis, MO), at 37 °C in a humidified atmosphere with 5% CO2. Human normal colon epithelial cells, CCD 841 CoTr (ATCC no. CRL-1807), were cultured in RPMI 1640 + dulbecco’s modified eagle medium (DMEM) (1:1) medium (Sigma, St. Louis, MO), supplemented with 10% FCS and antibiotics, at 34 °C in a 5% CO2/95% air atmosphere. Human glioblastoma T98G cells were cultured in Dulbecco’s Modified Eagle’s Medium (DMEM) (Sigma Aldrich, St. Louis, MO, USA), supplemented with 10% fetal bovine serum (FBS), penicillin (100 U/mL), and streptomycin (100 μg/mL). Human hepatocellular carcinoma cells, HepG2, were maintained in Eagle’s Minimum Essential Medium, supplemented with 10% FBS, penicillin (100 U/mL), and streptomycin (100 μg/mL).
(§4) After 24 h of incubation of the cells with the tested compounds in 100 μL of culture medium, MTT solution (5 mg/mL, 25 μL/well) was added and incubated for an additional 3 h. The purple crystals of formazan which formed in the medium were solubilized overnight in 10% sodium dodecyl sulphate (SDS) in a 0.01 M HCl mixture. The product was quantified spectrophotometrically by measuring its absorbance at 570 nm using an Emax Microplate Reader (Molecular Devices Corporation, Menlo Park, CA, USA).

HepG2 cells [2] = assay: MTT assay, HepG2; format: cell-based, human; details: for IC50: Homo sapiens, HepG2, MTT, 24 h treatment, mean ± SD; for SI (selectivity index): IC50 CCD 841 CoTr divided by IC50 HepG2
Procedure: as §1, §2, §3, §4

HT29 cells = assay: MTT assay, HT29; format: cell-based, human; details: for IC50: Homo sapiens, HT-29, HT29, MTT, 24 h treatment, mean ± SD; for SI (selectivity index): IC50 CCD 841 CoTr divided by IC50 HT29
Procedure: as §1, §2, §3, §4

CCD 841 CoTr cells = assay: MTT assay, normal colon epithelial cells; format: cell-based; details: Homo sapiens, CCD 841 CoTr (noncancerous), 24 h treatment, mean ± SD
Procedure: as §1, §2, §3, §4

HepG2 cells [3] = assay: ECM cell invasion assay (colorimetric), HepG2; format: cell-based, human
Procedure: (§5) The anti-invasion effects of 2 and 3 were examined using a Cell Invasion Assay Kit (ECM550, CHEMICON—Millipore Co., Billerica, MA, USA). In brief, 10^5 tumor cells were suspended in medium with 10% FBS and plated into the upper chamber, containing 8 μm pore size polycarbonate membrane precoated with ECMatrix, followed by filling the lower chamber with the same medium, enriched with the investigated compounds. Afterwards, cells were incubated for 24 h and allowed to invade towards the bottom chamber (with medium + 10% FBS). The non-invading cells on the upper membrane surface were removed with a cotton swab and the invasive cells, i.e., cells attached to the lower membrane surface, were stained with 0.1% crystal violet. For colorimetric quantitation, the stained cells were dissolved in 10% acetic acid (200 μL/well) and the obtained solution was transferred to a 96-well plate for spectrometric measurements, at a wavelength of 560 nm.

T98G cells [4] = assay: ECM cell invasion assay (colorimetric), T98G; format: cell-based, human
Procedure: as §5

HepG2 cells [5] = assay: Cell cycle analysis (image cytometry, DAPI); format: cell-based, human; details: 24 h at IC50 concentration (2.97 μM); control 6.02 ± 0.21%; mean ± SD
Procedure: HDAC inhibitors, in combination therapy with PPARγ agonists, exert synergistic/additive cytotoxic effects on cancer cells, resulting in proliferation arrest and increased cancerous cell apoptosis.
HepG2 cells were seeded on 6-well culture plates (Corning Inc., NY, USA) at the density of 1 × 10^5 cells/mL and cultured in the respective medium at 37 °C in a humidified atmosphere of 5% CO2. When the cells reached approximately 80–90% confluence, they were treated with 3, at a concentration of IC50, for 24 h. Subsequently, the cells were detached with trypsine, suspended in 250 μL of lysis buffer (Solution 10), supplemented with DAPI (10 μg/mL), and incubated for 5 min at 37 °C. Next, stabilization buffer (Solution 11) was added and the obtained cell suspension was applied on a NC slide and analyzed using a NucleoCounter NC-3000 Image Cytometer equipped with NucleoView software (https://chemometec.com/software/nucleoview/ (accessed on 20 November 2023). Experiments were repeated three times and the measurements in each experiment were run in duplicate.

Structure (SMILES)	IC50 (T98G cells [1]) [µM]	SI (selectivity index) (T98G cells [1])	IC50 (HepG2 cells [2]) [µM]	SI (selectivity index) (HepG2 cells [2])	IC50 (HT29 cells) [µM]	SI (selectivity index) (HT29 cells)	IC50 (CCD 841 CoTr cells) [µM]	Invasion through artificial ECM model (HepG2 cells [3]; HepG2, 1/10 IC50 to IC50, 24 h)	Invasion through artificial ECM model (HepG2 cells [3]; HepG2, lowest concentration tested (1/10 of the IC50), 24 h)	Invasion through artificial ECM model (T98G cells [4]; 1/10 IC50 to IC50, 24 h)	Invasion through artificial ECM model (T98G cells [4]; 1/10 of the IC50 doses, 24 h)	Percentage of HepG2 cells in sub-G1 phase (HepG2 cells [5]) [%]
O=C(C=C1SC(=O)NC1=O)Oc1ccccc1C=NNC(=S)Nc1ccccc1Cl [TZD–TSC 2]	26.8 ± 1.54	1.66	10.4 ± 0.72	4.30	43.9 ± 1.74	1.02	44.6 ± 2.91	exhibited inhibitory effects	did not reduce the number of invaded cells	exhibited inhibitory effects	statistically significantly inhibited	
O=C(C=C1SC(=O)NC1=O)Oc1ccccc1C=NNC(=S)Nc1cccc(Cl)c1 [TZD–TSC 3]	28.3 ± 2.21	3.54	2.97 ± 0.39	33.80	78.3 ± 5.47	1.28	100 ± 4.82	exhibited inhibitory effects		exhibited inhibitory effects	statistically significantly inhibited	40.36 ± 3.11
